Assay results taken from patent US8268853B2, “3,9-diazaspiro[5,5]undecane amides and ureas and methods of use thereof” (Abbott Laboratories, priority 2009, dated 2012).

Key:
human α4β2 NNR = molecular target: T1, human α4β2 NNR (Homo sapiens, UniProt P17787+P43681); test: Calcium flux assay (FLIPR), potentiation of submaximal nicotine response in HEK 293 cells expressing α4β2; assay type: cell-based; details: HEK 293 cells expressing human α4β2; potentiation of submaximal (EC20-30%) agonist such as nicotine; read-out: EC50 (α4β2 PAM)
T1 construct: expressed in transfected cells
T1 sequence (P43681 29-627 limits assumed): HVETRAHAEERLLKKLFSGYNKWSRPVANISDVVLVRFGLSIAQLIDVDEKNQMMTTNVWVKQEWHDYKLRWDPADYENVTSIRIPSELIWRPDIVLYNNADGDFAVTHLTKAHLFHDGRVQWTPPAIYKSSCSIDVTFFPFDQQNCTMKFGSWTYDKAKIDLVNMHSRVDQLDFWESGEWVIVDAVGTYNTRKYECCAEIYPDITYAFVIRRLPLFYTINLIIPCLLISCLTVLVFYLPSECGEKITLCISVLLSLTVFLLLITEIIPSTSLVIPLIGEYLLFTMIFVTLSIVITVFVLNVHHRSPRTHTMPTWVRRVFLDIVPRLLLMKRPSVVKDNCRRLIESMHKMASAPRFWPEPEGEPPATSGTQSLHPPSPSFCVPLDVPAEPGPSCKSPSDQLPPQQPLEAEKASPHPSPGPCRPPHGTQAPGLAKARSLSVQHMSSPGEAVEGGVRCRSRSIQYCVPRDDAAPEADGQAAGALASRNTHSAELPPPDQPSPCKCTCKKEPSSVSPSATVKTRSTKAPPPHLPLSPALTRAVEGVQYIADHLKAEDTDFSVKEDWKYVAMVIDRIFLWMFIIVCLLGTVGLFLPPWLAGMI
T1 sequence (P17787 26-502): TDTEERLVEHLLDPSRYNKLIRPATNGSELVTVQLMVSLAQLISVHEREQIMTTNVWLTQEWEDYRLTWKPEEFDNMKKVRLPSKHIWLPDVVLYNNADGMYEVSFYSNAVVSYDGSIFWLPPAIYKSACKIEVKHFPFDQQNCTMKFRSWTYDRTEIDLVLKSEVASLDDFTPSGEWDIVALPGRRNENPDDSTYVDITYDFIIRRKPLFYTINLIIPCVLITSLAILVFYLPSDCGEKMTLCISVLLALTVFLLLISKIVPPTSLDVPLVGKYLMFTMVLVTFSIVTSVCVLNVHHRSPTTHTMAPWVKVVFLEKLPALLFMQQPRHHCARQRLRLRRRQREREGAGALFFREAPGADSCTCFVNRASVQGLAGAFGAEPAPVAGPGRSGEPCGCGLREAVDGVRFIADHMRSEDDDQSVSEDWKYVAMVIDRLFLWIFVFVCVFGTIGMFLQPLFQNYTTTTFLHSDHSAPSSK
Excerpt: One manner to characterize α4β2 PAM activity is by characterization in clonal cell lines (for example, human embryonic kidney 293 cells) expressing the human neuronal nicotinic acetylcholine receptor subtype α4β2, particularly by use of Fluorescent Image Plate Reader technology. Effects on calcium flux or membrane potential changes can be assessed. Such assays have been reported and further details for carrying out the assays can be obtained in International Publication No. WO 2006/114400. Another method to identify and characterize allosteric modulator activity is by expressing the α4β2 subunits in Xenopus oocytes, and by measuring electrophysiological effects on ligand-evoked current responses as previously described in Curtis, L., et al., Molecular Pharmacology, 61: 127-135, 2002.
To determine the effectiveness of representative compounds of this invention as ligands for α4β2 PAM activity, the compounds of the invention can be evaluated according to the Calcium Flux Assay described below.
Calcium Flux Assays using Cells Expressing NNR Subtypes
Human embryonic kidney (HEK) 293 cells stably expressing human α4β2 or α3β4 combinations are grown to confluency in 162 cm^2 tissue culture flasks in DMEM media supplemented with 10% FBS and 25 μg/mL zeocin and 200 μg/mL hygromycin B. Cells expressing rat or ferret subunits may also be used. For assessing α3* or α7* selectivity, IMR-32 cells may also be used. IMR-32 neuroblastoma cells (ATCC) are grown to confluency in 162 cm^2 tissue culture flasks in minimum essential media supplemented with 10% FBS and 1 mM sodium pyruvate, 1% non-essential amino acids and 1% antibiotic-antimycotic. For the calcium flux assay, the cells are then dissociated using cell dissociation buffer and 100-150 μL per well of 3.5×10^5 cells/mL cell suspension (˜50,000-100,000 cells/well) was plated into 96-well black plates (poly-D-lysine precoated) with clear bottom and maintained for 24-48 hours in a tissue culture incubator at 37° C. under an atmosphere of 5% CO2: 95% air. Other clonal cell lines or primary cell cultures that express endogenous α4* nicotinic receptors may also be used in this assay. Calcium flux was measured using calcium-3 assay kit (Molecular Devices, Sunnyvale, Calif.) or fluo-4 (Invitrogen). A stock solution of the dye was prepared by dissolving each vial supplied by the vendor in Hank's balanced salt solution buffer (HBSS) or 150 mM NMDG, 20 mM calcium chloride containing 10 mM HEPES. The stock solution was diluted 1:20 using the same buffer before use. The growth media was removed from the cells. The cells were loaded with 100 μL of the dye per well and incubated at room temperature for up to one hour for HEK 293 clonal stable cell lines or 30 minutes-45 minutes at 37° C. for IMR-32 cells. Fluorescence measurements were read simultaneously from all the wells by a Fluorometic Imaging Plate Reader (FLIPR) at an excitation wavelength of 480 nm and an emission wavelength of 520 nm. Baseline fluorescence was measured for the first 6 seconds at which 3× concentrations of modulator/test compounds were added to the cell plate at 50 μL and incubated for five minutes. The fluorescence intensity was captured every second for the first 1 minute followed by every 5 seconds for an additional 4 minutes. This procedure was followed by 50 μL of 4× concentration of agonist and readings were taken for a period of 3-5 minutes as described above.
The ability of test compounds to positively modulate the response (i.e., increase the response) induced by a submaximal concentration of agonist (EC20-30%) such as nicotine is measured. Potentiation is measured based on peak fluorescence responses by screening compounds at fixed concentrations or in a concentration-response manner to derive EC50 values. The concentration dependence of changes in fluorescence responses is fitted by nonlinear regression analysis (GraphPad Prism, San Diego, Calif.) to obtain EC50 values. […]

[1] = molecular target: T2, hERG cardiac potassium channel (Homo sapiens, UniProt Q12809); test: [3H]dofetilide/HEK-293 membrane competition binding assay; details: displacement of [3H]dofetilide, HEK-293 membrane homogenates expressing hERG; Ki from IC50 by Cheng-Prusoff
T2 construct: expressed in transfected cells; host or cells: HEK-293 cells (membrane homogenate)
T2 sequence (Q12809 whole entry): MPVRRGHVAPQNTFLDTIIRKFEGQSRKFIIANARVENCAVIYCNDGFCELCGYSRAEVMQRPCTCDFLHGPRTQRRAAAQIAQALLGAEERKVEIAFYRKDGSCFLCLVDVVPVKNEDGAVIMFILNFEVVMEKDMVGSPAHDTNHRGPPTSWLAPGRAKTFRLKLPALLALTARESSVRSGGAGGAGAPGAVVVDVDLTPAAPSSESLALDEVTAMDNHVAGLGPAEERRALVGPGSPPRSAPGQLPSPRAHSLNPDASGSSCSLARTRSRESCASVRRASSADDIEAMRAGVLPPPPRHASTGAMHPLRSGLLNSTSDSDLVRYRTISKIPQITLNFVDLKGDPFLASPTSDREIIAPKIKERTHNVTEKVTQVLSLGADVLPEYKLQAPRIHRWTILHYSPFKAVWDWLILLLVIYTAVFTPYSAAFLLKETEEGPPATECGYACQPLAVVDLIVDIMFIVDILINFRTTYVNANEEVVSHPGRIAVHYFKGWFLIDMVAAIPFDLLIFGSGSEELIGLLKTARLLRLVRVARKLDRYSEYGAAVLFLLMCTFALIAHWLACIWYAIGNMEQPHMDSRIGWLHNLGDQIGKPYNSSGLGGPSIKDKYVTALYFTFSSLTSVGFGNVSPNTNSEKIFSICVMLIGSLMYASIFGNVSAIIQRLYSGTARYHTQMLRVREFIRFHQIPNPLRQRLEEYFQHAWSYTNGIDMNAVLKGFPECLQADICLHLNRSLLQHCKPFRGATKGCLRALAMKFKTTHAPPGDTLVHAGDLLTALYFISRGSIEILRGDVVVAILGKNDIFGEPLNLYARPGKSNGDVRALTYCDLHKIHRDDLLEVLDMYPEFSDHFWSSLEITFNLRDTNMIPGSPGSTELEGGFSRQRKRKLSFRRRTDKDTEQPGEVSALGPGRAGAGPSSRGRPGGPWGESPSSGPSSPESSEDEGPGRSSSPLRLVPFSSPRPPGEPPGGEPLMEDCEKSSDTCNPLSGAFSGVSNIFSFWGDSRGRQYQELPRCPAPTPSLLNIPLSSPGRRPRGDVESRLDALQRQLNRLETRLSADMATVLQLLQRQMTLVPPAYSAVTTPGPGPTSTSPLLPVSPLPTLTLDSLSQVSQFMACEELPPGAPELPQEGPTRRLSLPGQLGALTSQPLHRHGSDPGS
Excerpt: Drugs that block the cardiac potassium channel encoded by the human ether-a-go-go gene (hERG) have been associated clinically with QT interval prolongation, proarrhythmia, and in some rare cases, sudden cardiac death. The identification of drugs that block hERG has become a critical component of the safety profile. The [^3H]dofetilide/HEK-293 membrane competition binding assay described below permits the ranking of compounds for their potential to block the hERG potassium channel.
[^3H]dofetilide/HEK-293 Membrane Competition Binding Assay
The binding affinity of test drugs for the hERG cardiac potassium channel was determined by their ability to displace tritiated dofetilide (a class III antiarrhythmic drug and potent hERG blocker) in membrane homogenates from HEK-293 cells heterogously expressing the hERG channel. The assay was performed as previously described (Diaz, G.; Daniell, K.; Leitza, S. T.; Martin, R. L.; Su, Z.; McDermott, J. S.; Cox, B. F.; Gintant, G. A. The [^3H]dofetilide binding assay is a predictive screening tool for hERG blockade and proarrhythmia: Comparison of intact cell and membrane preparations and effects of altering [K^+]O. Journal of Pharmacological and Toxicological Methods 2004, 50, 187-199.). Briefly, drug dilutions were prepared from 10 mM dimethyl sulfoxide stocks and the following were added to a 96-well polystyrene plate (Perkin-Elmer Optiplate): 20 μL of assay binding buffer (for total bounds), or 1 μM astemizole (for non-specific bounds), or test drug, 50 μL of [^3H]dofetilide (20 nM, ˜80 Ci/mmol specific activity), and 130 μL of membrane homogenate (final protein concentration of 30 μg per well). The plates were incubated at ambient temperature for 45 minutes, aspirated onto GF/B filter plates (Perkin-Elmer), and washed with 2 mL of cold wash buffer. After allowing the plates to dry, 50 μL of scintillant (Perkin-Elmer MicroScint 20) were added to each well and the radioactivity was counted in a Perkin-Elmer Topcount NXT scintillation counter. IC50 determinations were calculated from competition curves using 6 drug concentrations, half-log apart, starting at a high concentration of 100 μM (final assay dimethyl sulfoxide concentration=1%) using a four-parameter logistic equation. Ki values were derived from the calculated IC50 values by using the Cheng and Prusoff (Cheng, Y.; Prusoff, W. H. Relationship between the inhibition constant (KI) and the concentration of inhibitor which causes 50 percent inhibition (I50) of an enzymatic reaction. Biochemical Pharmacology 1973, 22(23), 3099-3108) equation (Ki=IC50/1+[ligand]/Kd) using Kd values for [^3H]dofetilide obtained from saturation assays previously described (Diaz et al., 2004).

**Q.** Which results are given for `COc1cc(C(=O)N2CCC3(CCN(C)CC3)CC2)ccc1F` [Example 2, 3-(4-fluoro-3-methoxybenzoyl)-9-methyl-3,9-diazaspiro[5.5]undecane]?
**A.** EC50 (human α4β2 NNR): 970 nM; Ki [1]: > 53 µM

**Q.** For `COc1ccc(C(=O)N2CCC3(CCN(C)CC3)CC2)cc1F` [Example 3, 3-(3-fluoro-4-methoxybenzoyl)-9-methyl-3,9-diazaspiro[5.5]undecane], which EC50 (human α4β2 NNR) is on record?
**A.** 4300 nM

**Q.** And the Ki [1]?
**A.** 13 µM

**Q.** How did the EC50 (human α4β2 NNR) turn out when `COc1ccc(C(=O)N2CCC3(CCN(C)CC3)CC2)cc1Cl` [Example 4, 3-(3-chloro-4-methoxybenzoyl)-9-methyl-3,9-diazaspiro[5.5]undecane] was run?
**A.** 160 nM

**Q.** And the Ki [1]?
**A.** 16 µM

**Q.** Which results are given for `COc1c(Cl)cc(C(=O)N2CCC3(CCN(C)CC3)CC2)cc1Cl` [Example 5, 3-(3,5-dichloro-4-methoxybenzoyl)-9-methyl-3,9-diazaspiro[5.5]undecane]?
**A.** EC50 (human α4β2 NNR): 40 nM; Ki [1]: 19 µM

**Q.** `COc1cc(C(=O)N2CCC3(CCN(C)CC3)CC2)cc(Cl)c1OC` [Example 6, 3-(3-chloro-4,5-dimethoxybenzoyl)-9-methyl-3,9-diazaspiro[5.5]undecane] was tested. Which EC50 (human α4β2 NNR) did it give?
**A.** 360 nM

**Q.** What about the Ki [1] of the same compound?
**A.** > 54 µM

**Q.** How did the EC50 (human α4β2 NNR) turn out when `COc1ccc(NC(=O)N2CCC3(CCN(C)CC3)CC2)cc1F` [Example 7, N-(3-fluoro-4-methoxyphenyl)-9-methyl-3,9-diazaspiro[5.5]undecane-3-carboxamide] was run?
**A.** 1620 nM

**Q.** What about the Ki [1] of the same compound?
**A.** 8.5 µM

**Q.** Which EC50 (human α4β2 NNR) does the source give for `COc1ccc(NC(=O)N2CCC3(CCN(C)CC3)CC2)cc1Cl` [Example 8, N-(3-chloro-4-methoxyphenyl)-9-methyl-3,9-diazaspiro[5.5]undecane-3-carboxamide] here?
**A.** 610 nM

**Q.** `COc1cc(OC)c(NC(=O)N2CCC3(CCN(C)CC3)CC2)cc1Cl` [Example 9, N-(5-chloro-2,4-dimethoxyphenyl)-9-methyl-3,9-diazaspiro[5.5]undecane-3-carboxamide] was tested. Which EC50 (human α4β2 NNR) did it give?
**A.** 3740 nM

**Q.** With `COc1ccc(CC(=O)N2CCC3(CCN(C)CC3)CC2)cc1F` [Example 10, 3-[(3-fluoro-4-methoxyphenyl)acetyl]-9-methyl-3,9-diazaspiro[5.5]undecane] as the compound, how does the EC50 (human α4β2 NNR) read?
**A.** 1690 nM
